Reference: publication PMC7203344, “Sirtuin 1 Inhibiting Thiocyanates (S1th)—A New Class of Isotype Selective Inhibitors of NAD^+ Dependent Lysine Deacetylases” (Frontiers in Oncology, 2020)
Several values for one entry are separate records, joined by “and”; a condition that tells them apart may be missing. Identical values can stand only once. Entries after “also recorded” stand apart in the source; their conditions may differ.

How the values were obtained:
Sirt1 [1] = biological target: T1, Sirt1 (Homo sapiens, UniProt Q96EB6); experiment: Fluorescent thermal shift assay (FTSA), Sirt1; format: binding
T1 construct: made in house; host or cells: E. coli BL21 Star (DE3)
T1 sequence (Q96EB6 134-747): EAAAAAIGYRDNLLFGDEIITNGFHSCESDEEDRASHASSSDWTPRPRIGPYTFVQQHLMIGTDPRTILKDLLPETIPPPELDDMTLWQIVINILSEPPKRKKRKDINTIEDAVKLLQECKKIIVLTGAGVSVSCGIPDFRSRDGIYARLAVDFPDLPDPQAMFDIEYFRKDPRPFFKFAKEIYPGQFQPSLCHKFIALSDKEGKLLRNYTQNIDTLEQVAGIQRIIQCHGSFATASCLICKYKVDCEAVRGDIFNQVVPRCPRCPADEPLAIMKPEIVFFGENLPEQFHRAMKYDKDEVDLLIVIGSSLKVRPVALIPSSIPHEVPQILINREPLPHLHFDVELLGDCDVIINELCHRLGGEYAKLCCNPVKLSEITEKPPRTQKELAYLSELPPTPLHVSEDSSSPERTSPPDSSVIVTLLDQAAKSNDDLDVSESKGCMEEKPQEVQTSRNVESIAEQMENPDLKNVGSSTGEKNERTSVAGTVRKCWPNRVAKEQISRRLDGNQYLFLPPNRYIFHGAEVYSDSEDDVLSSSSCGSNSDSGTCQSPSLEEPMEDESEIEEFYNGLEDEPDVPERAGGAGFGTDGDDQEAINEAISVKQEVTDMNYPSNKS
Method: In a 96-well plate (Hard-Shell® PCR-plates, 96-well, thin-wall, BioRAD, USA) 14 μL Sirt1_134−747 in assay buffer (0.3 mg/mL final assay concentration, 50 mM Tris/HCl, 137 mM NaCl, 2.7 mM KCl, 1 mM MgCL2, pH 8.0) were mixed with 1 μL inhibitor in DMSO (100 μM) or DMSO [final assay concentration 5% (v/v)] as a control and 5 μL SyproOrange (1:100 in assay buffer). The fluorescence intensity was monitored during a constant increase of temperature from 20 to 95°C, 1 K per 20 s, using a real-time-PCR-machine (C1000 TouchTM Thermal Cycler, CFX96TM Real-Time System, BioRAD, USA). Melting temperatures were calculated via GraphPad Prism according to a published procedure ([60]).

human Sirt3 = biological target: T2, human Sirt3 (Homo sapiens, UniProt Q9NTG7); experiment: Homogeneous ZMAL-based fluorescence assay, Sirt3; format: biochemical
T2 construct: Human Sirt3_118−395 was expressed and purified as described previously; made in house
T2 sequence (Q9NTG7 118-395): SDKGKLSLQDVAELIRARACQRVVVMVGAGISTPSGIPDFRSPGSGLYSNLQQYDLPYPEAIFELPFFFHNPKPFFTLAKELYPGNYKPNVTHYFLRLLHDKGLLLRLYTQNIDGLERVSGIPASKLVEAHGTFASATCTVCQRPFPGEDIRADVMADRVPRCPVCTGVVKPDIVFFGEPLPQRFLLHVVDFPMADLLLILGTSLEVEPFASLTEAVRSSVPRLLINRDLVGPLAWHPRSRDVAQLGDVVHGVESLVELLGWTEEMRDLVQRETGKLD
Method: (§1) Recombinant human Sirt5_37−310 was purchased readily in Tris Buffer [25 mM Tris, 100 mM NaCl, 5 mM DTT, 10% glycerol (v/v)] from Enzo Life Sciences (NY, USA). Human Sirt3_118−395 was expressed and purified as described previously ([54]). For expression of human Sirt1_134−747 and Sirt2_56−356 chemically competent cells of E. coli BL21 Star (DE3) were transformed with the expression vectors pET30S-hSirt1_134−747 or pET30S-hSirt2_56−356. Bacteria were grown at 37°C in 2×YT medium supplemented with 50 μg·mL^−1 of kanamycin to an OD600 of 0.6. Then isopropyl-β-D-1-thiogalactopyranoside (IPTG) was added to a final concentration of 1 mM to induce gene expression. After further cultivation at 20°C for 12 h, the cells were harvested by centrifugation for 15 min at 5,000 g. The cells were resuspended in lysis buffer [100 mM Tris/HCl buffer at pH 8.0, 150 mM NaCl and 10% (v/v) glycerol] and disrupted by ultrasonication (Branson Digital Sonifier 250) at 70% amplitude for 10 min (3 s working, 10 s pause). The crude extract was cleared by centrifugation at 100,000 g for 1 h, and the supernatant was loaded onto a Strep-Tactin Superflow cartridge (5 ml bed volume, IBA Lifescience, Germany). Target proteins were eluted with lysis buffer containing 5 mM D-Desthiobiotin (IBA Lifescience, Germany) and further separated by size-exclusion chromatography (Superdex S200 26/60, GE Healthcare, IL, USA) equilibrated in Tris/HCl buffer (20 mM, 150 mM NaCl, pH 8.0). Pure protein was concentrated by ultrafiltration, flash-frozen in liquid nitrogen and stored at −80°C until further use. Identity as well as purity were verified by SDS-PAGE ([55]) and protein concentration was determined by the bicinchoninic acid (BCA) method, using bovine serum albumin (BSA) as a standard ([56]). Deacetylase activity was confirmed to be NAD^+-dependent and could be inhibited with the physiological sirtuin inhibitor nicotinamide.
(§2) All compounds were tested in the trypsin-coupled high-throughput ZMAL-assay in black 96-well plates (OptiPlateTM−96F, black, 96 well, Pinch bar design, PerkinElmer, USA), using ZMAL (Z-Lys(acetyl)-AMC) as a substrate ([57]). Sirt1_134−747, Sirt2_56−356, and Sirt3_118−395 were mixed with 5 μL substrate (10.5 μM final assay concentration, diluted from a […] stock in DMSO) and 3 μL Inhibitor in DMSO at various concentrations or DMSO as a control [final DMSO concentration 5% (v/v)]. The mixture was supplemented with assay buffer (50 mM Tris/HCl, 137 mM NaCl, 2.7 mM KCl, 1 mM MgCL2, pH 8.0) to a total volume of 55 μL. Enzyme concentration was adjusted to get a final conversion of 20–30%. Addition of 5 μL NAD^+ (6 mM in assay buffer, final assay concentration of 500 μM) initiated the catalytic reaction and the plates were incubated at 37°C for 4 h with agitation at 140 rpm. The catalytic reaction was stopped by addition of 60 μL stop solution [50 mM Tris, 100 mM NaCl, 6.7% (V/V) DMSO, 5.5 U/μL trypsin, 8 μM nicotinamide, pH 8.0]. The plate was again incubated at 37°C and 140 rpm for 20 min to release free AMC from the deacetylated substrate by trypsin digestion. Afterwards, fluorescence intensity was measured in a microplate reader (λEx = 390 nm, λEm = 460 nm, BMG POLARstar Optima, BMG Labtech, Germany). An enzyme-free blank control and a 100% conversion control containing AMC instead of ZMAL were measured in addition. Inhibition was calculated in % in relation to a DMSO control after blank signal subtraction and IC50 values were determined using a non-linear regression to fit the dose-response curve with OriginPro 9G (OriginLab, USA). Pre-tests as well as IC50 determination was carried out at least twice in duplicates.

Sirt1 [2] = biological target: T1, Sirt1; experiment: Homogeneous ZMAL-based fluorescence assay, Sirt1; format: biochemical
Method: as §1, §2

human Sirt2 = biological target: T3, human Sirt2 (Homo sapiens, UniProt Q8IXJ6); experiment: Homogeneous ZMAL-based fluorescence assay, Sirt2; format: biochemical
T3 construct: made in house; host or cells: E. coli BL21 Star (DE3)
T3 sequence (Q8IXJ6 56-356): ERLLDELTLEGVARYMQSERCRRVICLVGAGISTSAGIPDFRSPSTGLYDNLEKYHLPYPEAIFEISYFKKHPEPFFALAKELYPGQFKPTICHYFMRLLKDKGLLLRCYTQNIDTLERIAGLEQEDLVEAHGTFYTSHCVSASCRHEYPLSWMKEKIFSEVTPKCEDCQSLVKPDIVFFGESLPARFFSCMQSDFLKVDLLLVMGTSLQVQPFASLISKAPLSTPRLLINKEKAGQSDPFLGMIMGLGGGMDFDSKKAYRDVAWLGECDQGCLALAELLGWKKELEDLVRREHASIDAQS
Method: as §1, §2

[3] = system: γH2AX/H2AX levels in MEF cells; experiment: γH2AX level determination by western blot; format: cell-based, mouse; settings: 48 h, EX-527 10 μM, S1th 10 30 μM, S1th 12 20 μM, S1th 13 12 μM, SirReal2 30 μM
Method: Sirt1 WT and KO MEFS cells were treated with 10 μM EX-527, 12 μM S1th 13 (6), 20 μM S1th 12 (5), 30 μM S1th 10 (7) and 30 μM SirReal2 [Sirt2 inhibitor, synthesized according to ([62])] for 48 h. Oxidative stress was induced using 10 μM Camptothecin 2 h. Whole-cell extracts were performed according to the Dignam protocol ([63]). Primary antibodies used for the western blot were anti-H2AX and anti-γH2AX (ab11175 and ab2893 resp., Abcam, UK). Densiometric analysis of the western blots was performed with Quantity One software (Bio-Rad Laboratories, Inc., USA).

[4] = 2nd round of in vitro screening

NC(=O)c1ccc[n+]([C@@H]2O[C@H](COP(=O)([O-])OP(=O)(O)OC[C@H]3O[C@@H](n4cnc5c(N)ncnc54)[C@H](O)[C@@H]3O)[C@@H](O)[C@H]2O)c1 [NAD^+]
effect on Tm of Sirt1 (in words) (Sirt1 [1]): slightly increased

O=c1c2cccnc2sn1Cc1ccc(C(F)(F)F)cc1 [PU141]
effect on Tm of Sirt1 (in words) (Sirt1 [1]): no reasonable melting curve is obtained

CCCc1cc(=O)[nH]c(SCC(=O)Nc2cccc(SC#N)c2)n1 [S1th 1]
inhibition at 50 µM (human Sirt3; [4]): < 10%
inhibition at 50 µM (Sirt1 [2]; 50 µM, primary screen): 82%
IC50 (Sirt1 [2]; [4]): 13 ± 0.6 µM
inhibition at 50 µM (human Sirt2; [4]): 23%

N#CSc1cccc(NC(=O)c2ccc3c(c2)OCCO3)c1 [S1th 7]
inhibition at 50 µM (human Sirt3; 3rd round): < 10%
IC50 (Sirt1 [2]; 3rd round): 6.34 µM and 6.3 µM
inhibition at 50 µM (human Sirt2; 3rd round): < 10%

O=C(Nc1ccccc1-c1cn2c(CN3CCNCC3)csc2n1)c1cnc2ccccc2n1 [SRT1720]
effect on Tm of Sirt1 (in words) (Sirt1 [1]): barely effected; also recorded: very small shift or no shift at all

Cc1cc(C)nc(SCC(=O)Nc2ncc(Cc3cccc4ccccc34)s2)n1 [SirReal2, reference compound]
γH2AX/H2AX levels without Camptothecin [3]: does not affect

adenosine diphosphate ribose [ADPR]
effect on Tm of Sirt1 (in words) (Sirt1 [1]): strongly increased
stabilization (increase of Tm) of Sirt1 (Sirt1 [1]): up to 4 K
